In patent US10179780B2, “Azole benzene derivative and crystalline form thereof” (TEIJIN PHARMA LIMITED, priority 2014, dated 2019):

Legend:
[1] = system: level of uric acid in the blood; assay: Prolonged hypouricemic effect (normal rats), 24 hours after oral administration; type: in vivo, Sprague-Dawley male rats; settings: 24 hours after administration
Experimental: The crystal form A of the compound (II) was administered to Sprague-Dawley male rats in the similar manner as Example 5.
After the blood was collected from the tail vein 24 hours after administration, the plasma was separated. The level of uric acid in the blood was measured by an uricase method using an absorption spectrometer and a uric acid determination kit (L type Wako UA F: Wako Pure Chemical Industries, Ltd.). The percentage of hypouricemic effect was determined by the following expression: Percentage of hypouricemic effect=(Level of uric acid of the control animal−Level of uric acid of the test compound-administered animal)×100/Level of uric acid of the control animal.

[2] = system: level of uric acid in the plasma; assay: Hypouricemic effect (oxonic acid-induced hyperuricemic beagle dogs); type: in vivo; settings: hyperuricemic beagle dog, oral, 10 mg/kg, 8 hours after administration
Experimental: The hypouricemic effect was confirmed for the compounds (I) in oxonic acid-induced hyperuricmic beagle dog. […] Potassium oxonate (50 mg/kg) was subcutaneously administrated before and 4 hours after compound administration. After the blood was collected from the cephalic vein at 8 hours after administration, the plasma was separated. The level of uric acid in the plasma sample was measured by LC-MS/MS method and the percentage of hypouricemic effect was determined by the following expression: Percentage of hypouricemic effect (%)=(Level of uric acid of the control animal−Level of uric acid of the test compound-administered animal)×100/Level of uric acid of the control animal.

[3] = system: level of uric acid in the blood; assay: Hypouricemic effect (normal rats), 2 hours after oral administration; settings: 2 hours after administration
Experimental: A test compound suspended in a 0.5% methylcellulose solution was administered to 8 to 9 week-old Sprague-Dawley male rats (Japan Charles River Co.) by oral gavage administration using a feeding needle. After the blood was collected from the tail vein at 2 hours after administration, the plasma was separated. The level of uric acid in the blood sample was measured by uricase method using an absorption spectrometer as well as a uric acid determination kit (L type Wako UA F: Wako Pure Chemical Industries, Ltd.). The percentage of hypouricemic effect was determined by the following expression: Percentage of hypouricemic effect (%)=(Level of uric acid of the control animal−Level of uric acid of the test compound-administered animal)×100/Level of uric acid of the control animal.

[4] = Solubility into JP2 solution (pH 6.8); type: physicochemical
Experimental: The solubility of the compound (II) in JP2 solution (pH 6.8) was confirmed. A solution was prepared by mildly pulverizing the crystals A of the compound (II) in a mortar, and adding approximately 4 mg of the pulverized crystals to […] of JP2 solution while stirring at room temperature. The absorbance (At) of each solution at 280 nm was successively measured immediately after the addition of the crystals using an ultraviolet-visible absorbance measurement method and the solubility at each measurement time was determined by the following expression using the absorbance (As) of a standard solution at 280 mu determined in advance as an index. The measurement was continued until 120 minutes. Solubility=At/As×Cs (where Cs represents the concentration of a standard solution) • Measurement apparatus: μDISS Profiler manufactured by Pion Inc. • Stirring rate: 700 rpm • UV measurement wavelength: 280 nm • Measurement interval: Start of measurement to 1 minute: 3 seconds • 1 to 8 minutes: 20 seconds • 8 to 120 minutes: 2 minutes

Precipitation / maintenance of dissolved state ([4]; JP2 solution pH 6.8, up to 120 minutes after the addition)	Time until total amount was dissolved ([4]; approximately 4 mg of pulverized crystals in JP2 solution pH 6.8, 700 rpm)	solubility at 120 minutes ([4]; aqueous buffer, thermodynamic from solid, JP2 solution pH 6.8, room temperature, at 120 minutes after the addition)	solubility at 30 seconds ([4]; aqueous buffer, thermodynamic from solid, JP2 solution pH 6.8, room temperature, total amount dissolved within 30 seconds after the addition)	SMILES	Percentage of hypouricemic effect ([1]; 3 mg/kg)	Percentage of hypouricemic effect ([1]; 10 mg/kg)	hypouricemic effect [2]	Percentage of hypouricemic effect ([3]; 1 mg/kg)	Percentage of hypouricemic effect ([3]; 10 mg/kg)
				Cc1nc(-c2ccc(OCC(C)C)c(-n3cnnn3)c2)sc1C(=O)O [compound (I), 4-methyl-2-[4-(2-methylpropoxy)-3-(1H-1,2,3,4-tetrazol-1-yl)phenyl]-1,3-thiazole-5-carboxylic acid]	≥ 40%	≥ 50%	showed a hypouricemic effect	≥ 50%	≥ 50%
no precipitation was observed	≤ 30 s	184 µg/mL	187 µg/mL	Cc1nc(-c2ccc(OCC(C)C)c(-n3cnnn3)c2)sc1C(=O)[O-].[Na+] [compound (II), sodium 4-methyl-2-[4-(2-methylpropoxy)-3-(1H-1,2,3,4-tetrazol-1-yl)phenyl]-1,3-thiazole-5-carboxylate]	≥ 40%	≥ 50%		≥ 50%	≥ 50%
